Experimental findings from a melting point compilation (Tetko et al.; mined from patent text by program, amines drawn as free bases though some values may be those of a salt) are described below.

In general, melting point refers to the temperature of the solid-liquid transition. As for `Cn1cc(C2=C(c3c4n(c5ccccc35)CCN(C(=O)CNC(=O)C(F)(F)F)C4)C(=O)NC2=O)c2ccccc21`, the melting point was in the range of 170 to 172 °C. `CC(C)(C)C(NC(=O)CCCc1cccnc1)NC(=NC#N)Nc1cccc2ncccc12` (centres undefined) displayed a melting point of 181 to 182 °C.

The molecule `NNN=CNCCC(=O)O` returned a melting point of 177 to 179 °C. Turning to `CN1C(=O)N(C)C(O)(c2ccccc2)c2cc(Cl)ccc21` (centres undefined), the melting point is 174 to 176 °C. In the case of `COc1ccc2c(c1)C(c1ccc(O)cc1)c1c-2ccc2cc(OC)ccc12` (centres undefined), the melting point lay within 196 to 199 °C. `CCOC(=O)c1cn2c(-c3ccccc3)cccc2n1`: the melting point fell in the range of 123 to 124 °C. Regarding `Cc1cc2ccccc2n1-c1ccc(F)cc1`, the melting point was found to be 43 °C. On to `CON=C(C(=O)OC)c1cccc(O)c1`, for which the melting point lay within 39.5 to 40.5 °C. As for `CN(C#N)C(=O)CCCCC(=O)N(C)C#N`, the melting point fell in the range of 86.1 to 87.8 °C. Take `O=S(=O)(NCc1ccnc2c(Cl)cccc12)c1ccc(Br)cc1`: the melting point was determined as 185 °C. As to `CCOC(=O)c1nc2ccccc2c(=O)n1C`, the melting point lay within 48 to 50 °C. Take `CN(c1cccc2cc(C3=NCC(CC(=O)O)S3)[nH]c12)S(=O)(=O)c1cccs1` (centres undefined): the melting point is 232 to 234 °C. As to `COc1cc(CNC(C)=O)c(Cl)cc1O`, the melting point is over 300 °C. The value for `Cc1ccc(-c2cn(C)cc(-c3ccccc3)c2=O)c(C)c1` was 153 to 155 °C. For the molecule `NC(=O)CNC(=O)c1cccc(-c2ccc(F)c3cc(Cc4cc(F)cc(Cl)c4)sc23)c1`, the melting point lay within 166 to 167 °C.

As to `COc1nc(C)nc(NC(=O)NS(=O)(=O)c2c(Cl)cccc2C(C)F)n1` (centres undefined), the melting point lay within 181 to 183 °C.

As to `Cc1ccc2c([nH]c(=O)n3c(=O)[nH]nc23)c1C`, the melting point lay in the range of 380 to 382 °C. As for `COC(=O)c1ccc(CCC(C)(C)NCC(O)c2cc3ccccc3o2)cc1` (centres undefined), the melting point was in the range of 141 to 145 °C. As to `COc1cccc(C2CCCN(C(=O)Cc3cc4ccccc4o3)C2)c1` (centres undefined), the melting point was 175 to 176 °C. The molecule `N#Cc1ccc(CC(NC(=O)C(Cc2ccccc2)S(=O)(=O)Nc2ccc3ccccc3c2)C(=O)N2CCCC2)cc1` (centres undefined) returned a melting point of 206 °C. `CCOC(=O)/C=C/c1ccc(O)cc1OCc1ccccc1` showed a melting point of 131 to 133 °C. In the case of `C=CCOC(=O)c1ccccc1Cn1c(=O)n(S(=O)(=O)c2ccc(Cl)cc2)c(=O)c2ccc(Cl)cc21`, the melting point is 155 to 156 °C. Take `O=S(=O)(NCC(O)CN1c2ccccc2CCc2ccccc21)c1ccc(OC(F)(F)F)cc1` (centres undefined): the melting point lay within 102 to 103 °C.

With `Cn1c(Sc2ccccc2)c(C=NO)c(=O)n(C)c1=O`, the melting point worked out at 152 °C.

In the case of `COc1ccc(C=Cc2oc3ccc(C#N)cc3c2C(C)=O)cc1`, the melting point lay within 190 to 191 °C.

In turn, `O=C(OCc1ccccc1)C(C(=O)OCc1ccccc1)c1ncc(C(F)(F)F)cc1[N+](=O)[O-]` registered a melting point of 82 to 84 °C. As for `Cn1nc(-c2c(Cl)cncc2Cl)nc1Cc1ccc(Cl)cc1Cl`, the melting point is 79 to 81 °C.

In the case of `COC(=O)c1ccc2c(c1)C(c1ccccn1)CC(C)(C)O2` (centres undefined), the melting point fell in the range of 113 to 115 °C.

`O=C(c1ccc(-n2ccnc2)cc1)N1CCN(S(=O)(=O)c2ccc3cc(Br)ccc3c2)CC1`: the melting point lay within 207 to 209 °C. The molecule `Cc1nc2cc(Oc3cc(-c4ccc(C(C)(C)C)cc4)ncn3)ccc2s1` yielded a melting point of 163 to 165 °C. As for `COc1cc(OCc2ccccn2)ccc1/C=C/C(=O)CC(=O)/C=C/c1cc2ccccc2[nH]1`, the melting point is 178 to 179 °C. The value for `CCOCCOc1ccccc1COc1ccc2c(c1)C=C(C(=O)O)CCS2(=O)=O` was 134 to 136 °C. As to `CCCCn1ccc(-c2ccc(Oc3cc(C)nc(C)c3)cc2F)c(C#N)c1=O`, the melting point was 170 °C.

For `CCOC(=O)C(=CNc1cn[nH]c1)C(C)=O`, the melting point lay within 126 to 128 °C.
